Patent publication US10265422B2, “Ethylenediaminetetraacetic acid bis(amide) derivatives and their respective complexes with Mn(II) ion for use as MRI contrast agent” (BRACCO IMAGING S.P.A., priority 2015, dated 2019)
Read-outs that look alike come from different tables or passages of the source.

Experiments:
[1] = target: human serum albumin (HSA) (Homo sapiens, UniProt P02768); details: presence of HSA, 20 MHz
[2] = Relaxivity r1 in water at 20 MHz; type: physicochemical; details: absence of HSA
[3] = Decomplexation of Mn(II) complexes: transmetallation with Cu2+ ions followed by spectrophotometry; type: physicochemical; details: pH 7.4, 25 °C, read-out: t½ (half-life of decomplexation) (converted)
Experimental: These studies were performed by following the transmetallation reaction between the Mn^2+ based complexes and Cu^2+ ions by spectrophotometry as reported in […]. Inorganic Chemistry (2012), 51, 10065-7.

[4] = calculated using rate constants

human serum albumin (HSA), sequence (P02768 25-609): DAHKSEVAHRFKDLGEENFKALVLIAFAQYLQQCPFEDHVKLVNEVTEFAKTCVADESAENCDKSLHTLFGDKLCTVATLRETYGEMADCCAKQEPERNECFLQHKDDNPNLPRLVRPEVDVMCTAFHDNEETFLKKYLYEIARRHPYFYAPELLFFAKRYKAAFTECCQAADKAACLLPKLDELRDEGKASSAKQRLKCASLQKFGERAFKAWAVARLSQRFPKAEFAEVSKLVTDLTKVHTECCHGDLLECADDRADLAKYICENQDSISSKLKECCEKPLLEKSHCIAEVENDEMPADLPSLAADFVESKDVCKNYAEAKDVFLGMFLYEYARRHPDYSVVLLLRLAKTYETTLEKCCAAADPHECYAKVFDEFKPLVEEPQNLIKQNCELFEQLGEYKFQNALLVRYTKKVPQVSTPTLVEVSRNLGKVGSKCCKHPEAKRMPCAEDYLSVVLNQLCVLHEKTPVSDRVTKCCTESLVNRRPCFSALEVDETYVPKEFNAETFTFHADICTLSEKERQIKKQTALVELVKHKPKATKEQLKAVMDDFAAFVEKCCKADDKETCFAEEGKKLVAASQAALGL

SMILES	r1 HSA (relaxivity) ([1]; 25 °C) [mM⁻¹ s⁻¹]	r1 HSA (relaxivity) ([1]; 37 °C) [mM⁻¹ s⁻¹]	r1 (relaxivity) ([2]; 25 °C) [mM⁻¹ s⁻¹]	r1 (relaxivity) ([2]; 37 °C) [mM⁻¹ s⁻¹]	half-life [3, 4] [h]	half-life ([3]; footnote: half-life in seconds) [h]
O=C(O)CN(CC(=O)N1CCC(C(=O)O)CC1)C1CCCCC1N(CC(=O)O)CC(=O)N1CCC(C(=O)O)CC1 (stereo not drawn)	5.98	4.65	4.97	3.75		
O=C(O)CN(CC(=O)N1CCC(Cc2ccccc2)CC1)C1CCCCC1N(CC(=O)O)CC(=O)N1CCC(Cc2ccccc2)CC1 (stereo not drawn)	19.44	18.16	5.56	4.17		
O=C(O)CN(CC(=O)N1CCOCC1)C1CCCCC1N(CC(=O)O)CC(=O)N1CCOCC1 (stereo not drawn)	7.64	6.57	3.77	2.95		
O=C(O)CN(CC(=O)N1CCCCC1)C1CCCCC1N(CC(=O)O)CC(=O)N1CCCCC1 (stereo not drawn) [drawing 20]	5.63	4.56	4.43	3.49		
O=C(O)CN(CC(=O)NC(CO)CO)C1CCCCC1N(CC(=O)O)CC(=O)NC(CO)CO (stereo not drawn) [drawing 24]	6.01	4.44	5.17	3.94		
CN(C)C(=O)CN(CC(=O)O)C1CCCCC1N(CC(=O)O)CC(=O)N(C)C (stereo not drawn) [drawing 25]	13.10	9.94	4.37	3.43		
CCCCNC(=O)CN(CC(=O)O)C1CCCCC1N(CC(=O)O)CC(=O)NCCCC (stereo not drawn) [drawing 26]	6.55	5.37	4.64	3.62		
O=C(O)CN(CC(=O)N1CCCCC1)c1ccccc1N(CC(=O)O)CC(=O)N1CCCCC1 [drawing 27]	9.09	6.78	4.60	3.50		
O=C(O)CN(CC(=O)N1CCC(Cc2ccccc2)CC1)c1ccccc1N(CC(=O)O)CC(=O)N1CCC(Cc2ccccc2)CC1 [drawing 28]	28.20	23.84	5.29	4.04		
O=C(O)CN(CC(=O)N1CCCCC1)C1CCCCC1N(CC(=O)O)CC(=O)N1CCCCC1 (stereo not drawn) [drawing 29]					285	
O=C(O)CN(CC(=O)NC(CO)CO)C1CCCCC1N(CC(=O)O)CC(=O)NC(CO)CO (stereo not drawn) [drawing 37]					166	
CN(C)C(=O)CN(CC(=O)O)C1CCCCC1N(CC(=O)O)CC(=O)N(C)C (stereo not drawn) [drawing 38]					131	
CCCCNC(=O)CN(CC(=O)O)C1CCCCC1N(CC(=O)O)CC(=O)NCCCC (stereo not drawn) [drawing 39]					57	
O=C(O)CN(CC(=O)N1CCCCC1)c1ccccc1N(CC(=O)O)CC(=O)N1CCCCC1 [drawing 40]						0.0231
O=C(O)CN(CC(=O)N1CCC(Cc2ccccc2)CC1)c1ccccc1N(CC(=O)O)CC(=O)N1CCC(Cc2ccccc2)CC1 [drawing 41]						0.0167
